Legend:
glycated proteins = experiment: Reduction in glycated proteins in treated cells; format: cell-based
thioredoxin = details: donor; NAC (10 mM) alone
[1] = test system: thioredoxin reductase (TrxR); details: donor
Protocol: A volume corresponding to 50 μg of proteins of each cell extract is incubated with a mixture of HEPES, 80 mM pH 7.5, 0.9 mg/ml of NADPH, EDTA 6 mM, 2 mg/ml of insulin and 10 μM of Trx of E. coli, at 37° C. for 20 minutes in a final volume of 120 μL. The reaction is stopped by the addition of 500 μL of DTNB (dithio-bis-nitrobenzoic acid) (0.4 mg/ml) in guanidine hydrochloride 6 M/Tris-Cl 0.2 M (pH 8.0). A control sample containing everything except the Trx is incubated and treated in the same way as each sample.
The absorbance at 412 nm is measured and the value of the control subtracted from the value of the corresponding absorbance of the sample.
A standard curve is prepared using TrxR from purified calf thymus, with a defined specific activity.

COc1cc(/C=C/C(=O)O)ccc1O [arginine ferulate]
content required to inhibit 50% of the formation of glycated proteins in the cells (glycated proteins): 0.005%-0.02%

CC(=O)N[C@@H](CS)C(=O)O [NAC, N-Acetyl-cysteine]
Thioredoxin Level (thioredoxin): 59.8 ± 8.1 ng of Trx/mg of total proteins
Thioredoxin level, % change vs control (thioredoxin): −32%

C=CC=O [Acrolein]
TrxR activity, % change vs control ([1]; Acrolein 25 μM alone): −37%
TrxR Activity ([1]; Acrolein 25 μM in the culture medium, alone): 130.8 ± 11.4 ng of TrxR/mg of total proteins
